Laboratory results published in patent US11583556B2, “Modified cells and methods of therapy” (Regents of the University of Minnesota, priority 2015, dated 2023).

Tested on: HPRT
Experiment: Validation of gRNAs in HEK293T cells, Surveyor digest and densitometry, HPRT site
Type: cell-based, human
Conditions: HPRT target gene site, 3 days
Description: (§1) HEK293T cells were plated out at a density of 1×10^5 cells per well in a 24 well plate. 150 uL of Opti-MEM medium was combined with 1.5 ug of gRNA plasmid, 1.5 ug of Cas9 plasmid. Another 150 uL of Opti-MEM medium was combined with 5 ul of Lipofectamine 2000 Transfection reagent (Invitrogen). The solutions were combined together and incubated for 15 minutes at room temperature. The DNA-lipid complex was added dropwise to wells of the 24 well plate. Cells were incubated for 3 days at 37° C. and genomic DNA was collected using the GeneJET Genomic DNA Purification Kit (Thermo Scientific). Activity of the gRNAs was quantified by a Surveyor Digest, gel electrophoresis, and densitometry (FIG. 60 and FIG. 61) (Guschin, D. Y., et al., “A Rapid and General Assay for Monitoring Endogenous Gene Modification,” Methods in Molecular Biology, 649: 247-256 (2010)).
(§2) The efficiencies of Cas9 in creating double strand break (DSB) with the assistance of different gRNA sequences were listed in Table 7. The percentage numbers in Table 7 indicated the percent of gene modifications in the sample.

Substance	efficiency of Cas9/gRNA pair in creating double strand break (percent of gene modifications)
HPRT gRNA#5: guide RNA to HPRT; sense oligo SEQ ID 13 CACCGTGTTTCAATGAGAGCATTAC	<1%
HPRT gRNA#3: guide RNA to HPRT; sense oligo SEQ ID 9 CACCGACAAAAAAATTAGCCGGGTG	<1%
HPRT gRNA#2: guide RNA to HPRT; sense oligo SEQ ID 7 CACCGAAACAACAGGCCGGGCGGGT	30.04% ^
HPRT gRNA#1: guide RNA to HPRT; sense oligo SEQ ID 5 CACCGCACGTGTGAACCAACCCGCC	27.85% ^
HPRT gRNA#6: guide RNA to HPRT; sense oligo SEQ ID 15 CACCGGTCTCGAACTCCTGAGCTC	<5%
HPRT gRNA#4: guide RNA to HPRT; sense oligo SEQ ID 11 CACCGTAAATTTCTCTGATAGACTA	<5%

Tested on: PD1
Experiment: Validation of gRNAs in HEK293T cells, Surveyor digest and densitometry, PD1 site
Type: cell-based, human
Conditions: PD1 target gene site, 3 days
Description: as §1
(§3) The percentage numbers in Table 7 indicated the percent of gene modifications in the sample.

Substance	efficiency of Cas9/gRNA pair in creating double strand break (percent of gene modifications)
PD1 gRNA#1: guide RNA to PD-1; sense oligo SEQ ID 33 CACCGCGGAGAGCTTCGTGCTAAAC	10.83%
PD1 gRNA#6: guide RNA to PD-1; sense oligo SEQ ID 43 CACCGACGGAAGCGGCAGTCCTGGC	25.91%
PD1 gRNA#2: guide RNA to PD-1; sense oligo SEQ ID 35 CACCGCCTGCTCGTGGTGACCGAAG	>60%
PD1 gRNA#5: guide RNA to PD-1; sense oligo SEQ ID 41 CACCGCGTTGGGCAGTTGTGTGACA	30.60%
PD1 gRNA#4: guide RNA to PD-1; sense oligo SEQ ID 39 CACCGAGGCGGCCAGCTTGTCCGTC	20.87%

Tested on: CTLA4
Experiment: Validation of gRNAs in HEK293T cells, Surveyor digest and densitometry, CTLA4 site
Type: cell-based, human
Conditions: CTLA4 target gene site, 3 days
Description: as §1, §2

Substance	efficiency of Cas9/gRNA pair in creating double strand break (percent of gene modifications)
CTLA4 gRNA#5: guide RNA to CTLA4; sense oligo SEQ ID 55 CACCGCCGCACAGACTTCAGTCACC	15.90%
CTLA4 gRNA#6: guide RNA to CTLA4; sense oligo SEQ ID 57 CACCGCTGGCGATGCCTCGGCTGC	36.93%
CTLA4 gRNA#3: guide RNA to CTLA4; sense oligo SEQ ID 51 CACCGCTAGATGATTCCATCTGCAC	39.33%
CTLA4 gRNA#1: guide RNA to CTLA4; sense oligo SEQ ID 47 CACCGCCGGGTGACAGTGCTTCGGC	40.96%
CTLA4 gRNA#4: guide RNA to CTLA4; sense oligo SEQ ID 53 CACCGAGGTTCACTTGATTTCCAC	40.13%
CTLA4 gRNA#2: guide RNA to CTLA4; sense oligo SEQ ID 49 CACCGTGCGGCAACCTACATGATG	56.10%

Tested on: AAVS1
Experiment: Validation of gRNAs in HEK293T cells, Surveyor digest and densitometry, AAVS1 site
Type: cell-based, human
Conditions: AAVS1 target gene site, 3 days
Description: as §1, §3

Substance	efficiency of Cas9/gRNA pair in creating double strand break (percent of gene modifications)
AAVS1 gRNA#1: guide RNA to AAVS1; sense oligo SEQ ID 19 CACCGTGGGGGTTAGACCCAATATC	32.99%
AAVS1 gRNA#2: guide RNA to AAVS1; sense oligo SEQ ID 21 CACCGACCCCACAGTGGGGCCACTA	27.10%
AAVS1 gRNA#5: guide RNA to AAVS1; sense oligo SEQ ID 27 CACCGCCGGCCCTGGGAATATAAGG	27.55%
AAVS1 gRNA#6: guide RNA to AAVS1; sense oligo SEQ ID 29 CACCGCGGGCCCCTATGTCCACTTC	39.62%

Tested on: CCR5
Experiment: Validation of gRNAs in HEK293T cells, Surveyor digest and densitometry, CCR5 site
Type: cell-based, human
Conditions: CCR5 target gene site, 3 days
Description: as §1, §2

Substance	efficiency of Cas9/gRNA pair in creating double strand break (percent of gene modifications)
CCR5 gRNA#3: guide RNA to CCR5; sense oligo SEQ ID 65 CACCGGTGACAAGTGTGATCACTT	55.98%
CCR5 gRNA#6: guide RNA to CCR5; sense oligo SEQ ID 71 CACCGTTGTATTTCCAAAGTCCCAC	33.17%
CCR5 gRNA#2: guide RNA to CCR5; sense oligo SEQ ID 63 CACCGTCATCCTCCTGACAATCGAT	>60%
CCR5 gRNA#5: guide RNA to CCR5; sense oligo SEQ ID 69 CACCGATCTGGTAAAGATGATTCC	36.07%
CCR5 gRNA#1: guide RNA to CCR5; sense oligo SEQ ID 61 CACCGACAATGTGTCAACTCTTGAC	21.47%
CCR5 gRNA#4: guide RNA to CCR5; sense oligo SEQ ID 67 CACCGACACAGCATGGACGACAGCC	45.99%
